{"source": "paper PMC4239038", "about": "“The Potent Cdc7-Dbf4 (DDK) Kinase Inhibitor XL413 Has Limited Activity in Many Cancer Cell Lines and Discovery of Potential New DDK Inhibitor Scaffolds” (PLoS ONE, 2014)", "key": {"[1]": {"biological_target": "T1, purified DDK (Homo sapiens, UniProt O00311)", "T1 construct": "His6-Smt3 (SUMO) (N, cleaved yes); made in house; host or cells: E. coli BL21-RIPL (pKT37, pETDuet-1 vector)", "T1 sequence (O00311 whole entry)": "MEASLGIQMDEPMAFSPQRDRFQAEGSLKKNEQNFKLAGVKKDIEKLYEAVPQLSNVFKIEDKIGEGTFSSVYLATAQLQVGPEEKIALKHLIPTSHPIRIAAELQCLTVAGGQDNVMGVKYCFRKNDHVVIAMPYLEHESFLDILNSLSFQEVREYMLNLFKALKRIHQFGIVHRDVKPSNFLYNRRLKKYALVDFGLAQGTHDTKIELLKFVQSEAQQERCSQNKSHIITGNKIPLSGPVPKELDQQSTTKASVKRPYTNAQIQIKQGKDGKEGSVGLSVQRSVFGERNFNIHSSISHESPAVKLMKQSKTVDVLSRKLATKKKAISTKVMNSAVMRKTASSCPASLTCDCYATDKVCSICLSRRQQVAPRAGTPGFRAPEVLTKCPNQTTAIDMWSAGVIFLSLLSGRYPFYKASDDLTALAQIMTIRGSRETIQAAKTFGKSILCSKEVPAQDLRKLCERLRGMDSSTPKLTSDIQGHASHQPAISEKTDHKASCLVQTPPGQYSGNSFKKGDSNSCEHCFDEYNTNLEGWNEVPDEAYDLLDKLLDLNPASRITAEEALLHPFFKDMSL", "T1 sequence (Q9UBU7 341-674 partner limits assumed)": "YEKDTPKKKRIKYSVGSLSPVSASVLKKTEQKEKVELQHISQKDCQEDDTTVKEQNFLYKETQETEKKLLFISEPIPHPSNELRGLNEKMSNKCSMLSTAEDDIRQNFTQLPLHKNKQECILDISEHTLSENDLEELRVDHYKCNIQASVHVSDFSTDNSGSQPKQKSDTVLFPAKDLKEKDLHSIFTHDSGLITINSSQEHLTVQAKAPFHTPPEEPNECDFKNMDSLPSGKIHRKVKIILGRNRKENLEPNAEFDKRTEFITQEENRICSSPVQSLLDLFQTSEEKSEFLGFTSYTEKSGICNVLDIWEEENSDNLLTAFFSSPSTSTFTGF", "assay": "DDK thermal stability shift assay (TSA)", "type": "binding", "conditions": "library screen; for ΔTm / ΔTm at 20 µM: 20 µM compound"}, "[2]": {"tested_on": "DDK", "conditions": "read-out: DDK IC50 (in vitro); cited from earlier work"}}, "note": "pIC50: −log10 of the molar value. Counter-ions that a name gives are not always drawn."}
{"compound": "O=C1NC(=O)C(=Cc2ccc(-c3ccc(F)cc3O)o2)S1", "note": "[PI 3-Kγ/CKII Inhibitor]", "values": [{"measurement": "ΔTm", "setting": "[1]", "result": 0.3, "unit": "°C"}]}
{"compound": "O=C1Cc2c([nH]c3ccc(Br)cc23)-c2ncccc2N1", "note": "[1-Azakenpaullone]", "values": [{"measurement": "ΔTm", "setting": "[1]", "result": 0.6, "unit": "°C"}]}
{"compound": "O=S(=O)(c1cccc2cnccc12)N1CCCNCC1", "note": "[Fasudil hydrochloride]", "values": [{"measurement": "ΔTm at 20 µM", "setting": "[1]", "result": 0.9, "unit": "°C"}]}
{"compound": "O=C1Nc2ccc(Cl)cc2/C1=C/c1cc(Cl)c(O)c(Cl)c1", "note": "[PKR Inhibitor, NegaKve Control]", "values": [{"measurement": "ΔTm", "setting": "[1]", "result": 0.2, "unit": "°C"}]}
{"compound": "Brc1c(Br)c(Br)c2[nH]nnc2c1Br", "note": "[TBB, 4,5,6,7-Tetrabromobenzotriazole]", "values": [{"measurement": "ΔTm", "setting": "[1]", "result": 2.5, "unit": "°C"}]}
{"compound": "O=C1NC(=O)c2cc(Nc3ccc(F)cc3)c(Nc3ccc(F)cc3)cc21", "note": "[CGP 53353]", "values": [{"measurement": "ΔTm at 20 µM", "setting": "[1]", "result": 0.4, "unit": "°C"}]}
{"compound": "O=C1N=C(NCc2ccccc2)S/C1=C\\c1c[nH]c2ncccc12", "note": "[(5Z)-2-(Benzylamino)-5-(1H-pyrrolo[2,3-b]pyridin-3-ylmethylene)-1,3-thiazol-4(5H)-one]", "values": [{"measurement": "pIC50", "setting": "[2]", "result": 8.05}]}
{"compound": "Cc1[nH]c(/C=C2\\C(=O)Nc3ccc(S(=O)(=O)N(C)c4cccc(Cl)c4)cc32)c(C)c1C(=O)N1CCN(C)CC1", "note": "[Met Kinase Inhibitor]", "values": [{"measurement": "ΔTm", "setting": "[1]", "result": 0.2, "unit": "°C"}]}
{"compound": "COc1ccc2c(c1)/C(=C/c1cnc[nH]1)C(=O)N2", "note": "[SU9516]", "values": [{"measurement": "ΔTm at 20 µM", "setting": "[1]", "result": 0, "unit": "°C"}]}
{"compound": "c1nc2nc(Nc3ccc(N4CCOCC4)cc3)nc(NC3CCCCC3)c2[nH]1", "note": "[Reversine]", "values": [{"measurement": "ΔTm at 20 µM", "setting": "[1]", "result": 1.4, "unit": "°C"}]}
{"compound": "CN(C)c1ccc(/C=C2\\C(=O)Nc3ccccc32)cc1", "note": "[SU 4312]", "values": [{"measurement": "ΔTm", "setting": "[1]; 20 µM", "result": 0.2, "unit": "°C"}]}
{"compound": "Nc1ncnc2c1c(I)cn2[C@@H]1O[C@H](CO)[C@@H](O)[C@H]1O", "note": "[5-Iodotubercidin]", "values": [{"measurement": "ΔTm", "setting": "[1]", "result": 1.9, "unit": "°C"}]}
{"compound": "Cc1ccc(S(=O)(=O)/C=C/C#N)cc1", "note": "[BAY 11-7082]", "values": [{"measurement": "ΔTm", "setting": "[1]", "result": 0, "unit": "°C"}]}
{"compound": "O=C(NC(NC(=S)Nc1ccc(F)c([N+](=O)[O-])c1)C(Cl)(Cl)Cl)C(c1ccccc1)c1ccccc1", "note": "(stereo not shown) [CGK 733]", "values": [{"measurement": "ΔTm", "setting": "[1]; 20 µM", "result": 0.2, "unit": "°C"}]}
{"compound": "N#C/C(=C(\\N)Sc1ccc(N)cc1)c1ccccc1C(F)(F)F", "note": "[SL 327]", "values": [{"measurement": "ΔTm at 20 µM", "setting": "[1]", "result": 0.5, "unit": "°C"}]}
{"compound": "JAK3 Inhibitor IV", "values": [{"measurement": "ΔTm", "setting": "[1]", "result": 0.3, "unit": "°C"}]}
{"compound": "O=C(Nc1cc(Cl)cc2c1[nH]c1cnccc12)c1cccnc1", "note": "[IKK Inhibitor X]", "values": [{"measurement": "ΔTm", "setting": "[1]", "result": 0, "unit": "°C"}]}
{"compound": "CNCCNS(=O)(=O)c1cccc2cnccc12.Cl.Cl", "note": "[H-8, Dihydrochloride]", "values": [{"measurement": "ΔTm", "setting": "[1]", "result": 0.5, "unit": "°C"}]}
{"compound": "NC(=O)Nc1cc(-c2ccccc2)sc1C(N)=O", "note": "[IKK-2 Inhibitor XI]", "values": [{"measurement": "ΔTm", "setting": "[1]", "result": 0.3, "unit": "°C"}]}
{"compound": "CN1CCC(Nc2ncc3ncnc(Nc4ccc(F)c(Cl)c4)c3n2)CC1.Cl.Cl", "note": "[BIBX 1382 dihydrochloride]", "values": [{"measurement": "ΔTm", "setting": "[1]", "result": 0.8, "unit": "°C"}]}
{"compound": "Nc1[nH]nc2nnc(-c3c(-c4ccccc4)nn4ccccc34)cc12", "note": "[ERK Inhibitor II, FR180204]", "values": [{"measurement": "ΔTm", "setting": "[1]", "result": 0, "unit": "°C"}]}
{"compound": "IGF-1R Inhibitor II", "values": [{"measurement": "ΔTm", "setting": "[1]", "result": 0, "unit": "°C"}]}
{"compound": "CN(C)S(=O)(=O)c1ccc2c(c1)/C(=C/c1cc3c([nH]1)CCCC3)C(=O)N2", "note": "[SU6656]", "values": [{"measurement": "ΔTm at 20 µM", "setting": "[1]", "result": 0.1, "unit": "°C"}]}
{"compound": "CCN(CC)CCNC(=O)c1c(C)[nH]c(/C=C2\\C(=O)Nc3ccc(Cl)cc32)c1C", "note": "[SU11652]", "values": [{"measurement": "ΔTm at 20 µM", "setting": "[1]", "result": 1.8, "unit": "°C"}]}
{"compound": "COc1cc2c(cc1OC)-c1[nH]nc(Nc3cccc(F)c3)c1C2", "values": [{"measurement": "ΔTm", "setting": "[1]", "result": 0.3, "unit": "°C"}]}
{"compound": "CNC1CC2OC(C)(C1OC)n1c3ccccc3c3c4c(c5c6ccccc6n2c5c31)C(=O)NC4O", "note": "(stereo not shown) [UCN-01, 7-Hydroxystaurosporine]", "values": [{"measurement": "ΔTm at 10 µM", "setting": "[1]; 10 µM compound", "result": 2.1, "unit": "°C"}]}
{"compound": "Nc1ccc(-c2cccc3c(=O)cc(N4CCOCC4)oc23)cc1", "note": "[PI 828]", "values": [{"measurement": "ΔTm", "setting": "[1]", "result": 0.6, "unit": "°C"}]}
{"compound": "O=C1NC(=O)c2c1c1c3ccccc3[nH]c1n1cncc21", "note": "[Isogranulajmide]", "values": [{"measurement": "ΔTm at 20 µM", "setting": "[1]", "result": 1, "unit": "°C"}]}
{"compound": "CCCCCCCCCCCCCCCCn1cc[n+](Cc2ccccc2)c1C.[I-]", "note": "[eEF-2 Kinase Inhibitor, NH125]", "values": [{"measurement": "ΔTm", "setting": "[1]", "result": 0, "unit": "°C"}]}
{"compound": "CCN(CC)C(=O)c1ccc(Nc2nc(OCC3CCCCC3)c3[nH]cnc3n2)cc1", "note": "[Cdk2 Inhibitor IV, NU6140]", "values": [{"measurement": "ΔTm", "setting": "[1]", "result": 0.2, "unit": "°C"}]}
{"compound": "C=CCc1c(C)nc2sc3c(N)ncnc3c2c1C", "note": "[7,9-dimethyl-8-prop-2-enylpyrido[2,3]thieno[2,4-d]pyrimidin-4-amine]", "values": [{"measurement": "pIC50", "setting": "[2]", "result": 7.70}]}
{"compound": "DNA-PK Inhibitor III", "values": [{"measurement": "ΔTm", "setting": "[1]", "result": 0.2, "unit": "°C"}]}
{"compound": "Cc1ccc2c(=O)c3ccccc3n(CCCN)c2c1C.O=C(O)/C=C\\C(=O)O", "note": "[ER 27319 maleate]", "values": [{"measurement": "ΔTm", "setting": "[1]", "result": 0.5, "unit": "°C"}]}
{"compound": "COc1ccc2nc3c(c(C)nn3C)c(NCCOCCO)c2c1", "note": "[Ras/Rac TransformaEon Blocker, SCH 51344]", "values": [{"measurement": "ΔTm", "setting": "[1]", "result": 0.5, "unit": "°C"}]}
{"compound": "O=c1cc(-c2cccc3c2Sc2ccccc2S3)oc(N2CCOCC2)c1", "note": "[ATM Kinase Inhibitor]", "values": [{"measurement": "ΔTm", "setting": "[1]", "result": 1.1, "unit": "°C"}]}
{"compound": "NC(=O)Nc1sc(-c2ccccc2)cc1C(N)=O", "note": "[IKK-2 Inhibitor VI]", "values": [{"measurement": "ΔTm", "setting": "[1]", "result": 1.2, "unit": "°C"}]}
{"compound": "O=C(c1ccc(Nc2nccc(-c3cc4ccccc4s3)n2)cc1)N1CCC(N2CCCC2)CC1", "note": "[IKK 16]", "values": [{"measurement": "ΔTm", "setting": "[1]", "result": 1.5, "unit": "°C"}]}
{"compound": "COc1cc2ncnc(Nc3cccc(O)c3)c2cc1OC", "note": "[WHI-P180, Hydrochloride]", "values": [{"measurement": "ΔTm", "setting": "[1]", "result": 0, "unit": "°C"}]}
{"compound": "PP1 Analog II, 1NM-PP1", "values": [{"measurement": "ΔTm", "setting": "[1]", "result": 0.2, "unit": "°C"}]}
{"compound": "CC(C)[C@H](CO)Nc1nc(Nc2cccc(Cl)c2)c2ncn(C(C)C)c2n1", "note": "[Purvalanol A]", "values": [{"measurement": "ΔTm at 20 µM", "setting": "[1]", "result": 0.2, "unit": "°C"}]}
